Where only a bound is given, the exact number is not on record here.

In the assay the target is T1, AAK1 (Homo sapiens, UniProt Q2M2I8).
T1 construct: NP_055726.2
T1 sequence (Q2M2I8 1-863 isoform Q2M2I8-2): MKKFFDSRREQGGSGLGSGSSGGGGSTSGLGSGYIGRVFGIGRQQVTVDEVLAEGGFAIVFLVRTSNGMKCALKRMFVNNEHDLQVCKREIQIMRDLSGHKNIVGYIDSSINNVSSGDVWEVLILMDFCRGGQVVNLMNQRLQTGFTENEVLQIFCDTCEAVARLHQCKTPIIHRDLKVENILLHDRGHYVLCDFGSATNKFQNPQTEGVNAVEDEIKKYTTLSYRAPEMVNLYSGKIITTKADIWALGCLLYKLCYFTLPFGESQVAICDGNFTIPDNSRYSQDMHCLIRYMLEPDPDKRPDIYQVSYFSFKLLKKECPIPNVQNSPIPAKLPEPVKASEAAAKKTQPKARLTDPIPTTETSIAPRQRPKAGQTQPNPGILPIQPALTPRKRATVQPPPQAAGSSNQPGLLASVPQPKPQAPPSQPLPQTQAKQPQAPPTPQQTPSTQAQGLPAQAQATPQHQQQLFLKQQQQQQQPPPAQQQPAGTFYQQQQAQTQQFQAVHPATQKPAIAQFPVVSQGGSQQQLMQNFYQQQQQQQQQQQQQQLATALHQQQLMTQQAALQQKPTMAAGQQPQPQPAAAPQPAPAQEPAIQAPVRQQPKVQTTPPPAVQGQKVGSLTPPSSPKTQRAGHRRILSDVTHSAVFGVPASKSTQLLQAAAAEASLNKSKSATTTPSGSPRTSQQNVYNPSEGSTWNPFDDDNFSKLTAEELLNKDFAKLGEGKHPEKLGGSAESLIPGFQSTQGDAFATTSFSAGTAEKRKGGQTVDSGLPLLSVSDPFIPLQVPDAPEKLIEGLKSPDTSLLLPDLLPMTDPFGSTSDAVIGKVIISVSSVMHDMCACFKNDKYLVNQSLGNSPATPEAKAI
The assay is described as follows: P81 filter plate assay. In kind it is biochemical. The note with it: full-length human AAK1, Mu2 substrate, 33P-ATP. The protocol: Compounds were serially diluted into a Labcyte LDV plate (Labcyte, cat#LP-0200) using a Mutiprobe (PerkinElmer) and Biomek FX (Beckman Coulter) so that the highest compound concentration was at 96 μM. Compounds were then pinged (75 nL per well) into a Greiner 384-well reaction plate (Greiner, #781076) using an ECHO 550 Liquid Handler (Labcyte). A total of 12 μl reaction buffer (IMAP buffer containing Tween and DTT, from Molecular Devices) was then added to each well of columns 1 and 13 for the negative controls and 12 μl of 2× AAK1 (0.2 nM full-length human protein, NCBI accession no. NP_055726.2) was added to the remaining wells. Enzyme was then pre-incubated with compound for 10 minutes at RT. Reactions were initiated upon Minitrak (PerkinElmer) addition of 12 μl substrate mix containing 2× Mu2 (0.2 μM, full length human protein), 2× cold ATP (2 μM), and 1.3 μCi of hot ^33P-ATP. […] proceeded for one hour at RT. Meanwhile, Millipore 384-well P81 filter plates (Millipore, catalog #MZPHNOW10) were placed on a plate washer (Zoom ZW, from Titertek) and pre-wet with 50 μl 1% phosphoric acid. Kinase reactions were then stopped upon addition of 24 μl of 2% phosphoric acid to each well and the Minitrak was then used to transfer 40 μl from each well into the pre-wet Millipore 384-well P81 filter plates. Reaction mixtures were incubated for 10 minutes at RT in the P81 plates, followed by washing five times with 100 μl/well of 1% phosphoric acid using the Zoom filter washer. The bottom of each filter plate was sealed followed by addition of 20 μl Microscint 40 to each well, sealing the top of the plates with Flashplate cover, and then waiting one hour until reading on the TopCount (PerkinElmer).
Regarding `CCOc1ncccc1-c1cnn2ccc(N3CCN(C(=O)OCCOC)CC3)nc12` [2-methoxyethyl 4-(3-(2-ethoxypyridin-3-yl)pyrazolo[1,5-a]pyrimidin-5-yl)piperazine-1-carboxylate], the IC50 was no more than 10 nM.

`CCOC(=O)N1CCN(c2ccn3ncc(-c4cc(F)ccc4OC)c3n2)CC1` [ethyl 4-(3-(5-fluoro-2-methoxyphenyl)pyrazolo[1,5-a]pyrimidin-5-yl)piperazine-1-carboxylate]: the IC50 is no more than 10 nM.

For `CSc1ncccc1-c1cnn2ccc(N3CCN(C(=O)OC(C)C)CC3)nc12` [isopropyl 4-(3-(2-(methylthio)pyridin-3-yl)pyrazolo[1,5-a]pyrimidin-5-yl)piperazine-1-carboxylate], the IC50 was no more than 100 nM.

Regarding `CC(C)OC(=O)N1CCN(c2ccn3ncc(-c4cccnc4OCCN(C)C)c3n2)CC1` [isopropyl 4-(3-(2-(2-(dimethylamino)ethoxy)pyridin-3-yl)pyrazolo[1,5-a]pyrimidin-5-yl)piperazine-1-carboxylate], the IC50 was no more than 100 nM.

Molecule `[2H]C1([2H])N(C(=O)OC(C)(C)C)C([2H])([2H])C([2H])([2H])N(c2ccn3ncc(Br)c3n2)C1([2H])[2H]` [tert-butyl 4-(3-bromopyrazolo[1,5-a]pyrimidin-5-yl)-d8-piperazine-1-carboxylate] showed an IC50 of no more than 100 nM.

Take `COc1ncncc1-c1cnn2ccc(N3CCN(C(=O)OC(C)C)CC3)nc12` [isopropyl 4-(3-(4-methoxypyrimidin-5-yl)pyrazolo[1,5-a]pyrimidin-5-yl)piperazine-1-carboxylate]: the IC50 was no more than 100 nM.

Consider `COc1ncc(F)cc1-c1cnn2ccc(N(C)CCN(C)C(=O)OC(C)C)nc12` [isopropyl (2-((3-(5-fluoro-2-methoxypyridin-3-yl)pyrazolo[1,5-a]pyrimidin-5-yl)(methyl)amino)ethyl)(methyl)carbamate], for which the IC50 was no more than 10 nM.

Turning to `COc1nc(C)ccc1-c1cnn2ccc(N(C)CCCOC(C)(C)C)nc12` [N-(3-(tert-butoxy)propyl)-3-(2-methoxy-6-methylpyridin-3-yl)-N-methylpyrazolo[1,5-a]pyrimidin-5-amine], the IC50 is no more than 100 nM.

`COc1ncccc1-c1cnn2ccc(N3CCN(C(=O)C(C)(C)N)CC3)nc12` [2-amino-1-(4-(3-(2-methoxypyridin-3-yl)pyrazolo[1,5-a]pyrimidin-5-yl)piperazin-1-yl)-2-methylpropan-1-one] registered an IC50 of no more than 100 nM.

On to `COCc1cn(-c2ccn3ncc(-c4cccnc4OC)c3n2)cn1` [5-(4-(methoxymethyl)-1H-imidazol-1-yl)-3-(2-methoxypyridin-3-yl)pyrazolo[1,5-a]pyrimidine], for which the IC50 is no more than 100 nM.

`COc1ncccc1-c1cnn2ccc(OCCN(C)C(=O)OC(C)C)nc12` [isopropyl (2-((3-(2-methoxypyridin-3-yl)pyrazolo[1,5-a]pyrimidin-5-yl)oxy)ethyl)(methyl)carbamate] yielded an IC50 of no more than 100 nM.

In the case of `COc1ncccc1-c1cnn2ccc(N(C)CCCOC(C)(C)C)nc12` [N-(3-(tert-butoxy)propyl)-3-(2-methoxypyridin-3-yl)-N-methylpyrazolo[1,5-a]pyrimidin-5-amine], the IC50 is no more than 100 nM.

For the molecule `CCOC(=O)N1CCN(c2ccn3ncc(-c4ccc(OC)nc4OC)c3n2)CC1` [ethyl 4-(3-(2,6-dimethoxypyridin-3-yl)pyrazolo[1,5-a]pyrimidin-5-yl)piperazine-1-carboxylate], the IC50 was no more than 10 nM.

In the case of `CCO/C=C/c1cnn2ccc(N3CCN(C(=O)OC(C)C)CC3)nc12` [(E)-isopropyl 4-(3-(2-ethoxyvinyl)pyrazolo[1,5-a]pyrimidin-5-yl)piperazine-1-carboxylate], the IC50 was no more than 100 nM.

On to `COc1ncccc1-c1cnn2ccc(N3CCN(C[C@@H](N)CC(C)C)CC3)nc12` [(S)-1-(4-(3-(2-methoxypyridin-3-yl)pyrazolo[1,5-a]pyrimidin-5-yl)piperazin-1-yl)-4-methylpentan-2-amine], for which the IC50 is no more than 100 nM.

Regarding `COc1ncccc1-c1cnn2ccc(N3CCN(C(=O)CC(C)C)CC3)nc12` [1-(4-(3-(2-methoxypyridin-3-yl)pyrazolo[1,5-a]pyrimidin-5-yl)piperazin-1-yl)-3-methylbutan-1-one], the IC50 was no more than 10 nM.

Consider `COc1ncc(C)cc1-c1cnn2ccc(N3CC[C@H](N(C)C(=O)OC(C)C)C3)nc12` [(S)-isopropyl (1-(3-(2-methoxy-5-methylpyridin-3-yl)pyrazolo[1,5-a]pyrimidin-5-yl)pyrrolidin-3-yl)(methyl)carbamate], for which the IC50 is no more than 10 nM.

Molecule `CC(C)OC(=O)N1CCN(c2ccn3ncc(-c4cccc5nccn45)c3n2)CC1` [isopropyl 4-(3-(imidazo[1,2-a]pyridin-5-yl)pyrazolo[1,5-a]pyrimidin-5-yl)piperazine-1-carboxylate] registered an IC50 of no more than 100 nM.

Turning to `COc1ncccc1-c1cnn2ccc(N3CCN4C(=O)N(CC(C)C)CC4C3)nc12` (centres unmarked) [2-isobutyl-7-(3-(2-methoxypyridin-3-yl)pyrazolo[1,5-a]pyrimidin-5-yl)hexahydroimidazo[1,5-a]pyrazin-3(2H)-one], the IC50 was no more than 10 nM.

`CC(C)(C)OCCCNc1ccn2ncc(Br)c2n1` [3-bromo-N-(3-(tert-butoxy)propyl)pyrazolo[1,5-a]pyrimidin-5-amine] yielded an IC50 of no more than 1000 nM.

In turn, `COc1ncc(F)cc1-c1cnn2ccc(N3CCN(CC(F)(F)F)CC3)nc12` [3-(5-fluoro-2-methoxypyridin-3-yl)-5-(4-(2,2,2-trifluoroethyl)piperazin-1-yl)pyrazolo[1,5-a]pyrimidine] gave a half-inhibitory concentration (IC50) of no more than 1000 nM.

Turning to `COc1ncccc1-c1cnn2ccc(N3C[C@H]4C[C@@H](C3)N4C(=O)OC(C)(C)C)nc12` [(1R,5S)-tert-butyl 3-(3-(2-methoxypyridin-3-yl)pyrazolo[1,5-a]pyrimidin-5-yl)-3,6-diazabicyclo[3.1.1]heptane-6-carboxylate], the IC50 is no more than 100 nM.

Regarding `COc1ncccc1-c1cnn2ccc(N(C)CCN(C)C(=O)[C@@H](N)CC(C)C)nc12` [(S)-2-amino-N-(2-((3-(2-methoxypyridin-3-yl)pyrazolo[1,5-a]pyrimidin-5-yl)(methyl)amino)ethyl)-N,4-dimethylpentanamide], the IC50 was no more than 10 nM.

Regarding `CC(C)OC(=O)N1CCN(c2ccn3ncc(-c4cccn5ccnc45)c3n2)CC1` [isopropyl 4-(3-(imidazo[1,2-a]pyridin-8-yl)pyrazolo[1,5-a]pyrimidin-5-yl)piperazine-1-carboxylate], the IC50 is no more than 100 nM.

In the case of `COC(=O)c1ccc(-c2cnn3ccc(N4CCN(C(=O)OC(C)C)CC4)nc23)cc1` [isopropyl 4-(3-(4-(methoxycarbonyl)phenyl)pyrazolo[1,5-a]pyrimidin-5-yl)piperazine-1-carboxylate], the IC50 was no more than 100 nM.

Molecule `COc1ncc(F)cc1-c1cnn2ccc(N(C)CCCN(C)C(=O)OC(C)C)nc12` [isopropyl (3-((3-(5-fluoro-2-methoxypyridin-3-yl)pyrazolo[1,5-a]pyrimidin-5-yl)(methyl)amino)propyl)(methyl)carbamate] displayed an IC50 of no more than 10 nM.

As a reminder, the IC50 is the concentration needed to halve the response being measured. Higher therefore signals weaker potency in that assay.

(Values after patent publication US9403832B2, “Pyrazolo[1,5-a]pyrimidine-based compounds, compositions comprising them, and methods of their use” (Lexicon Pharmaceuticals, Inc., priority 2012, dated 2016).)
